According to patent US8106031B2, “Hydrolytically-resistant boron-containing therapeutics and methods of use” (Anacor Pharmaceuticals, Inc., priority 2006, dated 2012):
Values after ≈ are worked out from the molar mass of the structure shown. Like-named read-outs stand apart in the source and are kept apart here.

Legend:
Cryptococcus neoformans = experiment: MIC against C. neoformans (NCCLS broth dilution); type: cell-based; conditions: for MIC: Cryptococcus neoformans, read-out: Minimum inhibitory concentration, C. neoformans
Text: (§1) To determine the antifungal activity of these compounds we screened for their minimum inhibitory concentrations (MIC) against the major dermatophytes that cause onychomycosis, T. rubrum and T. mentagrophytes, and against the yeasts and molds C. albicans, C. neoformans and A. fumigatus to test for their broad spectrum activity. The antifungal agent ciclopirox, currently in use for the topical treatment of onychomycosis, was used as a reference.
(§2) All MIC testing against Trichophyton rubrum, Trichophyton mentagrophytes, Candida albicans, Cryptococcus neoformans and Aspergillus fumigatus were determined following the National Committee for Clinical Laboratory Standards (NCCLS) guidelines for antimicrobial testing of yeasts and filamentous fungi.^i,ii
(§3) Two-fold serial dilutions of the test compounds were prepared in 96-well plates. […] Pfaller M A, Chaturvedi V, Espinel-Ingroff A, Ghannoum M A, Gosey L L, Odds F C, Rex J H, Rinaldi M G, Sheehan D J, Walsh T J, Warnock D W. NCCLS publication M27-A2—Reference Method for Broth Dilution Antifungal Susceptibility Testing of Yeasts; Approved Standard—Second Edition. […] Pfaller M A, Chaturvedi V, Espinel-Ingroff A, Ghannoum M A, Gosey L L, Odds F C, Rex J H, Rinaldi M G, Sheehan D J, Walsh T J, Warnock D W. NCCLS publication M38-A—Reference Method for Broth Dilution Antifungal Susceptibility Testing of Filamentous Fungi; Approved Standard.

[1] = system: T. rubrum, T. mentagrophytes, C. albicans, C. neoformans and A. fumigatus; experiment: MIC against the panel of fungi tested; type: cell-based; conditions: for fold less active than the corresponding oxaborole: 6-membered oxaborin vs 5-membered oxaborole (23a vs 9a, 23b vs 9b, 24 vs 19b); for fold increase in potency: 5-fluoro compound relative to its R^i = H analog (9b vs 9a, 10b vs 10a), strains tested
Text: MIC, or minimum inhibitory concentration, is the point where compound stops more than 90% of cell growth relative to an untreated control.
as §1, §2
Briefly, compounds were dissolved in DMSO and diluted in sterile water to give a working stock. Two-fold serial dilutions of the test compounds were prepared in 96-well plates. The plates were inoculated with the fungal suspensions to give a final inoculum size of 0.5−2.5×10^3 cells/mL for yeasts or 0.4−5×10^4 CFU/mL for filamentous fungi and then incubated for 24-168 h at 35° C. […] Pfaller M A, Chaturvedi V, Espinel-Ingroff A, Ghannoum M A, Gosey L L, Odds F C, Rex J H, Rinaldi M G, Sheehan D J, Walsh T J, Warnock D W. NCCLS publication M27-A2—Reference Method for Broth Dilution Antifungal Susceptibility Testing of Yeasts; Approved Standard—Second Edition. Wayne, P A: NCCLS; 2002 (Vol. 22, No. 15). • ii. Pfaller M A, Chaturvedi V, Espinel-Ingroff A, Ghannoum M A, Gosey L L, Odds F C, Rex J H, Rinaldi M G, Sheehan D J, Walsh T J, Warnock D W. NCCLS publication M38-A—Reference Method for Broth Dilution Antifungal Susceptibility Testing of Filamentous Fungi; Approved Standard. Wayne, P A: NCCLS; 2002 (Vol. 22, No. 16).

Candida albicans = experiment: MIC against C. albicans (NCCLS broth dilution); type: cell-based; conditions: for MIC: Candida albicans, read-out: Minimum inhibitory concentration, C. albicans
Text: as §1, §2, §3

Aspergillus fumigatus = experiment: MIC against A. fumigatus (NCCLS broth dilution); type: cell-based; conditions: for MIC: Aspergillus fumigatus, read-out: Minimum inhibitory concentration, A. fumigatus
Text: as §1, §2, §3

[2] = system: Trichophyton mentagrophytes; experiment: MIC against T. mentagrophytes (NCCLS broth dilution); type: cell-based; conditions: for MIC: Trichophyton mentagrophytes, read-out: Minimum inhibitory concentration, T. mentagrophytes
Text: as §1, §2, §3

Trichophyton rubrum = experiment: MIC against T. rubrum (NCCLS broth dilution); type: cell-based; conditions: for MIC: Trichophyton rubrum, read-out: Minimum inhibitory concentration, T. rubrum
Text: as §1, §2, §3

LogP = type: physicochemical; conditions: table of b228; read-out: eLogP
Text: Further discussion, and assays for testing log P, molecular weight and water solubility are described in U.S. patent application Ser. Nos. 11/357,687 and 11/505,591, which are incorporated herein by reference.

[3] = Penetration of the nail plate; type: in vitro ADME; conditions: result in words
[4] = Table 1, over 90% reduction of growth, 24-168 h at 35° C.
[5] = 24 h, Table 1, over 90% reduction of growth, 24-168 h at 35° C.

6-Fluoro-1-phenyl-1,2,3,4-tetrahydro-2,1-benzoxaborine [23a]
Minimum inhibitory concentration, C. neoformans (Cryptococcus neoformans; [4]): 16 µg/mL
fold less active than the corresponding oxaborole [1]: approximately 2 fold
Minimum inhibitory concentration, C. albicans (Candida albicans; [4]): 8 µg/mL
Minimum inhibitory concentration, A. fumigatus (Aspergillus fumigatus; [4]): 16 µg/mL
Minimum inhibitory concentration, T. mentagrophytes [2, 4]: 8 µg/mL
Minimum inhibitory concentration, T. rubrum (Trichophyton rubrum; [4]): 8 µg/mL

Fc1ccc2c(c1)COB2c1ccccc1 [Compound 3]
logP (LogP): 3.55
penetration of the nail plate [3]: penetrates the nail plate poorly

Fc1ccc2c(c1)COB2C=Cc1ccccc1 [10b, 1,3-Dihydro-5-fluoro-1-styryl-2,1-benzoxaborole]
MIC (Cryptococcus neoformans; [4]): 0.5 µg/mL (≈ 2.1 µM)
fold increase in potency [1]: 4-8 fold
melting point: 84 to 86 °C
MIC (Candida albicans; [4]): 0.5 µg/mL (≈ 2.1 µM)
MIC (Aspergillus fumigatus; [4]): 1 µg/mL (≈ 4.2 µM)
MIC [2, 4]: 2 µg/mL (≈ 8.4 µM)
MIC (Trichophyton rubrum; [4]): ≤ 1 µg/mL

c1ccc(B2OCCc3ccccc32)cc1 [23b, 1-Phenyl-1,2,3,4-tetrahydro-2,1-benzoxaborine]
MIC (Cryptococcus neoformans; [5]): 8 µg/mL (≈ 38.4 µM)
fold less active than the corresponding oxaborole [1]: 4-16 fold
MIC (Candida albicans; [5]): 8 µg/mL (≈ 38.4 µM)
MIC (Aspergillus fumigatus; [5]): 8 µg/mL (≈ 38.4 µM)
MIC [2, 5]: 8 µg/mL (≈ 38.4 µM)
MIC (Trichophyton rubrum; [5]): 8 µg/mL (≈ 38.4 µM)

Cc1cc(C2CCCCC2)n(O)c(=O)c1 [Ciclopirox, reference compound]
MIC (Cryptococcus neoformans; [4]): 0.5 µg/mL (≈ 2.41 µM)
penetration of the nail plate [3]: penetrates the nail plate poorly
MIC (Candida albicans; [4]): 0.5 µg/mL (≈ 2.41 µM)
MIC (Aspergillus fumigatus; [4]): 1 µg/mL (≈ 4.82 µM)
MIC [2, 4]: 0.5 µg/mL (≈ 2.41 µM)
MIC (Trichophyton rubrum; [4]): 0.5 µg/mL (≈ 2.41 µM)

Fc1ccc2c(c1)COB2c1ccccc1 [9b, 1,3-Dihydro-5-fluoro-1-phenyl-2,1-benzoxaborole]
MIC (Cryptococcus neoformans; [4]): 2 µg/mL (≈ 9.43 µM)
Minimum inhibitory concentration, C. neoformans (Cryptococcus neoformans; Table 2, 1-phenyl series (9)): 2 µg/mL (≈ 9.43 µM)
fold increase in potency [1]: 2-8 fold
melting point: 90 to 99 °C
MIC (Candida albicans; [4]): 0.5 µg/mL (≈ 2.36 µM)
Minimum inhibitory concentration, C. albicans (Candida albicans; Table 2, 1-phenyl series (9)): 0.5 µg/mL (≈ 2.36 µM)
MIC (Aspergillus fumigatus; [4]): 2 µg/mL (≈ 9.43 µM)
Minimum inhibitory concentration, A. fumigatus (Aspergillus fumigatus; Table 2, 1-phenyl series (9)): 2 µg/mL (≈ 9.43 µM)
Minimum inhibitory concentration, T. mentagrophytes ([2]; Table 2, 1-phenyl series (9)): 2 µg/mL (≈ 9.43 µM)
MIC [2, 4]: 2 µg/mL (≈ 9.43 µM)
Minimum inhibitory concentration, T. rubrum (Trichophyton rubrum; Table 2, 1-phenyl series (9)): 1 µg/mL (≈ 4.72 µM)
MIC (Trichophyton rubrum; [4]): 1 µg/mL (≈ 4.72 µM)

OB1OCCc2cc(F)ccc21 [compound 24, 6-Fluoro-1-hydroxy-1,2,3,4-tetrahydro-2,1-benzoxaborine]
MIC (Cryptococcus neoformans; [4]): > 64 µg/mL
fold less active than the corresponding oxaborole [1]: 32-256 fold
MIC (Candida albicans; [4]): 64 µg/mL (≈ 386 µM)
MIC (Aspergillus fumigatus; [4]): 32 µg/mL (≈ 193 µM)
MIC [2, 4]: 32 µg/mL (≈ 193 µM)
MIC (Trichophyton rubrum; [4]): 32 µg/mL (≈ 193 µM)

C(=Cc1ccccc1)B1OCc2ccccc21 [10a, 1,3-Dihydro-1-styryl-2,1-benzoxaborole]
MIC (Cryptococcus neoformans; [4]): 4 µg/mL (≈ 18.2 µM)
melting point: 57 to 59 °C
MIC (Candida albicans; [4]): 2 µg/mL (≈ 9.09 µM)
MIC (Aspergillus fumigatus; [4]): 4 µg/mL (≈ 18.2 µM)
MIC [2, 4]: 8 µg/mL (≈ 36.4 µM)
MIC (Trichophyton rubrum; [4]): 8 µg/mL (≈ 36.4 µM)

Cc1cscc1B1OCc2cc(F)ccc21 [compound 14, 1,3-Dihydro-5-fluoro-1-(4-methylthiophen-3-yl)-2,1-benzoxaborole]
MIC (Cryptococcus neoformans; [4]): 1 µg/mL (≈ 4.31 µM)
melting point: 51 to 53 °C
MIC (Candida albicans; [4]): 1 µg/mL (≈ 4.31 µM)
MIC (Aspergillus fumigatus; [4]): 1 µg/mL (≈ 4.31 µM)
MIC [2, 4]: 2 µg/mL (≈ 8.62 µM)
MIC (Trichophyton rubrum; [4]): 1 µg/mL (≈ 4.31 µM)

Cc1ccc(B2OCc3cc(F)ccc32)cc1 [9j, 1,3-Dihydro-5-fluoro-1-(4-methylphenyl)-2,1-benzoxaborole]
MIC (Cryptococcus neoformans; Table 2, 1-phenyl series (9)): 0.5 µg/mL (≈ 2.21 µM)
melting point: 48 to 49 °C
MIC (Candida albicans; Table 2, 1-phenyl series (9)): 0.5 µg/mL (≈ 2.21 µM)
MIC (Aspergillus fumigatus; Table 2, 1-phenyl series (9)): 0.5 µg/mL (≈ 2.21 µM)
MIC ([2]; Table 2, 1-phenyl series (9)): 2 µg/mL (≈ 8.85 µM)
MIC (Trichophyton rubrum; Table 2, 1-phenyl series (9)): 2 µg/mL (≈ 8.85 µM)

Fc1ccc(B2OCc3cc(F)ccc32)cc1 [9h, 1,3-Dihydro-5-fluoro-1-(4-fluorophenyl)-2,1-benzoxaborole]
MIC (Cryptococcus neoformans; Table 2, 1-phenyl series (9)): 1 µg/mL (≈ 4.35 µM)
melting point: 75 to 77 °C
MIC (Candida albicans; Table 2, 1-phenyl series (9)): 1 µg/mL (≈ 4.35 µM)
MIC (Aspergillus fumigatus; Table 2, 1-phenyl series (9)): 2 µg/mL (≈ 8.69 µM)
MIC ([2]; Table 2, 1-phenyl series (9)): 4 µg/mL (≈ 17.4 µM)
MIC (Trichophyton rubrum; Table 2, 1-phenyl series (9)): 4 µg/mL (≈ 17.4 µM)

CC1OB(O)c2ccc(F)cc21 (centres unmarked) [19c, 1,3-Dihydro-5-fluoro-1-hydroxy-3-methyl-2,1-benzoxaborolane]
Minimum inhibitory concentration, C. neoformans (Cryptococcus neoformans; [4]): 32 µg/mL (≈ 193 µM)
fold decrease in activity ([1]; 3-methyl compound relative to 19b): 8-32 fold
Minimum inhibitory concentration, C. albicans (Candida albicans; [4]): 16 µg/mL (≈ 96.4 µM)
Minimum inhibitory concentration, A. fumigatus (Aspergillus fumigatus; [4]): 16 µg/mL (≈ 96.4 µM)
Minimum inhibitory concentration, T. mentagrophytes [2, 4]: 16 µg/mL (≈ 96.4 µM)
Minimum inhibitory concentration, T. rubrum (Trichophyton rubrum; [4]): 32 µg/mL (≈ 193 µM)

Fc1ccc2c(c1)COB2c1cccnc1 [compound 15, 3-(1,3-Dihydro-5-fluoro-2,1-benzoxaborol-1-yl)pyridine]
MIC (Cryptococcus neoformans; [4]): 16 µg/mL (≈ 75.1 µM)
fold decrease in activity against the dermatophytes ([1]; T. rubrum and T. mentagrophytes, relative to 9b): 16-64 fold
fold reduction in activity against C. neoformans and A. fumigatus ([1]; relative to 9b): 4 fold
melting point: 210 to 212 °C
MIC (Candida albicans; [4]): 4 µg/mL (≈ 18.8 µM)
change in activity against C. albicans (Candida albicans; relative to 9b, in words): no change in activity
MIC (Aspergillus fumigatus; [4]): 16 µg/mL (≈ 75.1 µM)
MIC [2, 4]: 32 µg/mL (≈ 150 µM)
MIC (Trichophyton rubrum; [4]): 16 µg/mL (≈ 75.1 µM)

c1ccc(B2OCc3ccccc32)cc1 [9a, 1,3-Dihydro-1-phenyl-2,1-benzoxaborole]
MIC (Cryptococcus neoformans; [4]): 8 µg/mL (≈ 41.2 µM)
Minimum inhibitory concentration, C. neoformans (Cryptococcus neoformans; Table 2, 1-phenyl series (9)): 8 µg/mL (≈ 41.2 µM)
MIC values, range over the strains tested ([1]; all five fungi): 4 to 8 µg/mL
MIC (Candida albicans; [4]): 4 µg/mL (≈ 20.6 µM)
Minimum inhibitory concentration, C. albicans (Candida albicans; Table 2, 1-phenyl series (9)): 4 µg/mL (≈ 20.6 µM)
MIC (Aspergillus fumigatus; [4]): 4 µg/mL (≈ 20.6 µM)
Minimum inhibitory concentration, A. fumigatus (Aspergillus fumigatus; Table 2, 1-phenyl series (9)): 4 µg/mL (≈ 20.6 µM)
Minimum inhibitory concentration, T. mentagrophytes ([2]; Table 2, 1-phenyl series (9)): 4 µg/mL (≈ 20.6 µM)
MIC [2, 4]: 4 µg/mL (≈ 20.6 µM)
Minimum inhibitory concentration, T. rubrum (Trichophyton rubrum; Table 2, 1-phenyl series (9)): 4 µg/mL (≈ 20.6 µM)
MIC (Trichophyton rubrum; [4]): 4 µg/mL (≈ 20.6 µM)
